The source of these data is patent publication US7947718B2, “Isoxazole compounds as histamine H3 modulators” (Janssen Pharmaceutica NV, priority 2004, dated 2011).

T1 sequence (Q9Y5N1 whole entry): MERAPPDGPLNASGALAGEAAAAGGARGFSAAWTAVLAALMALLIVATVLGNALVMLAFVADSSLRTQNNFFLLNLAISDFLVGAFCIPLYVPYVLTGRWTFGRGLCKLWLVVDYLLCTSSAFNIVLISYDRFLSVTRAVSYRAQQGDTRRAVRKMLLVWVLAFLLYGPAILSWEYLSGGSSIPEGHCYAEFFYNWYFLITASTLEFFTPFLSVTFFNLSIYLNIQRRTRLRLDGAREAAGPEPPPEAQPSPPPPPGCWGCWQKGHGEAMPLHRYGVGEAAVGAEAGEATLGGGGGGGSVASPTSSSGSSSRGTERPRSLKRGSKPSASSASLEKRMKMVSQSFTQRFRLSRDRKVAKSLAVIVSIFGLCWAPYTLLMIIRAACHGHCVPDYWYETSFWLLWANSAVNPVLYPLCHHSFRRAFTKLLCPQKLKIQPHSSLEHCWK

The test addresses T1, human histamine H3 receptor (Homo sapiens, UniProt Q9Y5N1).
T1 construct: expressed in transfected cells; membranes were used
Nature of the test: [3H]-N-Methylhistamine binding. The following applies: membranes of H3 receptor-expressing SK-N-MC cells; 0.8 nM [3H]-N-methylhistamine, 60 min at 25° C. On the procedure:
Cells were grown to about 70% to 80% confluence and removed from the plate with trypsin and pelleted in a clinical centrifuge. […] One μg supercoiled H3 receptor cDNA was added to the cells and mixed gently. The voltage for the electroporation was set at 0.25 kV and the capacitance was set at 960 μF. After electroporation the cells were diluted with 10 mL of complete media and were plated onto four 10 cm dishes at the following ratios: 1:20, 1:10, 1:5, and 1:2. […] Colonies that survived selection were grown and tested. SK-N-MC cells were used because they give efficient coupling for inhibition of adenylate cyclase. The clones that gave the most robust inhibition of adenylate cyclase in response to histamine were used for further study.
Cell pellets from histamine H3 receptor-expressing SK-N-MC cells were homogenized in 50 mM TrisHCl/0.5 mM EDTA. Supernatants from an 800 g spin were collected and were recentrifuged at 30,000 g for 30 min. Pellets were re-homogenized in 50 mM Tris/5 mM EDTA (pH 7.4). Membranes were incubated with 0.8 nM [^3H]-N-methylhistamine plus/minus test compounds for 60 min at 25° C. and were harvested by rapid filtration over GF/C glass fiber filters (pretreated with 0.3% polyethylenimine) followed by four washes with buffer. Filters were added to 5 mL of scintillation cocktail, and the signal was then counted on a liquid scintillation counter.
Broadly, the Ki is the dissociation constant of the complex between target and ligand, obtained from inhibition or displacement. High values mean lower affinity, low ones higher affinity. As to `CC(C)N1CCN(C(=O)c2ccnc(NCCN3CCCCC3)c2)CC1` [Example 16, (4-Isopropyl-piperazin-1-yl)-[2-(2-piperidin-1-yl-ethylamino)-pyridin-4-yl]-methanone], the Ki is 6 nM. To `CC(C)N1CCN(C(=O)c2ccc(N3CCN(C(C)C)CC3)nc2)CC1` [Example 13, (4-Isopropyl-piperazin-1-yl)-[6-(4-isopropyl-piperazin-1-yl)-pyridin-3-yl]-methanone] belongs 4 nM.

`CCOC(=O)N1CCN(c2ccc(C(=O)N3CCN(C(C)C)CC3)cn2)CC1` [Example 14, 4-[5-(4-Isopropyl-piperazine-1-carbonyl)-pyridin-2-yl]-piperazine-1-carboxylic acid ethyl ester]: the Ki came to 79 nM. To `C(#Cc1ccc(CN2CCCCC2)cn1)CCN1CCCCC1` [Example 8, 2-(4-Piperidin-1-yl-but-1-ynyl)-5-piperidin-1-ylmethyl-pyridine] belongs 5 nM; to `COCCNCc1cccc(C#CCCN2CCCCC2)n1` [Example 22, (2-Methoxy-ethyl)-[6-(4-piperidin-1-yl-but-1-ynyl)-pyridin-2-ylmethyl]-amine], 29 nM; to `CC(C)N1CCN(C(=O)c2ccc(N3CCN(C)CC3)nc2)CC1` [Example 15, (4-Isopropyl-piperazin-1-yl)-[6-(4-methyl-piperazin-1-yl)-pyridin-3-yl]-methanone], 3 nM.

In turn, `C(#Cc1cncc(CN2CCOCC2)c1)CCN1CCCCC1` [Example 19, 4-[5-(4-Piperidin-1-yl-but-1-ynyl)-pyridin-3-ylmethyl]-morpholine] had a Ki of 15 nM. In the case of `CC(C)N1CCN(C(=O)c2ccc(NCCN3CCOCC3)nc2)CC1` [Example 10, (4-Isopropyl-piperazin-1-yl)-[6-(2-morpholin-4-yl-ethylamino)-pyridin-3-yl]-methanone], the affinity corresponds to a Ki of 14 nM. The Ki values of the last two compounds are within 1.5-fold of each other. `C(#Cc1cccc(CN2CCOCC2)n1)CCN1CCCCC1` [Example 21, 4-[6-(4-Piperidin-1-yl-but-1-ynyl)-pyridin-2-ylmethyl]-morpholine] showed an inhibitory constant (Ki) of 38 nM. The compound `CC(C)N1CCN(C(=O)c2cccnc2NCCN2CCCCC2)CC1` [Example 17, (4-Isopropyl-piperazin-1-yl)-[2-(2-piperidin-1-yl-ethylamino)-pyridin-3-yl]-methanone] came in with an inhibition constant (Ki) of 141 nM. `C(#Cc1cncc(CN2CCCCC2)c1)CCN1CCCCC1` [Example 18, 3-(4-Piperidin-1-yl-but-1-ynyl)-5-piperidin-1-ylmethyl-pyridine] displayed a Ki of 2 nM. For the compound `C(#Cc1cccc(CN2CCCCC2)n1)CCN1CCCCC1` [Example 20, 2-(4-Piperidin-1-yl-but-1-ynyl)-6-piperidin-1-ylmethyl-pyridine], the affinity corresponds to a Ki of 8 nM. In turn, `CC(C)N1CCN(C(=O)c2ccc(NCCc3ccccn3)nc2)CC1` [Example 11, (4-Isopropyl-piperazin-1-yl)-[6-(2-pyridin-2-yl-ethylamino)-pyridin-3-yl]-methanone] displayed an inhibitory constant (Ki) of 84 nM. This Ki lies about 10-fold higher than the previous one.

Take `CC(C)N1CCN(C(=O)c2ccc(NCCN3CCCCC3)nc2)CC1` [Example 9, (4-Isopropyl-piperazin-1-yl)-[6-(2-piperidin-1-yl-ethylamino)-pyridin-3-yl]-methanone]: affinity was put at a Ki of 2 nM. Compared with the last compound, the Ki is about 42-fold lower.

Compound `CCN(CC)CCN(C)c1ccc(C(=O)N2CCN(C(C)C)CC2)cn1` [Example 12, {6-[(2-Diethylamino-ethyl)-methyl-amino]-pyridin-3-yl}-(4-isopropyl-piperazin-1-yl)-methanone] gave an inhibitory constant (Ki) of 3 nM.
